According to publication PMC7171677 (ACS infectious diseases, 2019):
≈ marks a conversion by molar mass, not a printed value. Entries after “also recorded” stand apart in the source; their conditions may differ. Read-outs that look alike come from different tables or passages of the source.

Key:
[1] = tested on: PfENT1-expressing fui1Δ yeast; assay: 5-FUrd inhibition of PfENT1-expressing fui1Δ yeast growth; assay type: cell-based; settings: Saccharomyces cerevisiae, read-out: IC50 for inhibition of yeast growth
[2] = tested on: PfENT1-KO (pfent1Δ) parasites in the Dd2 background; assay: P. falciparum parasite proliferation, PfENT1-knockout; assay type: cell-based, Plasmodium falciparum; settings: for IC50: Plasmodium falciparum, DD2, read-out: PfENT1-KO parasite proliferation IC50
PbENT1 = PbENT1 (Plasmodium berghei, UniProt A0A509AYF4); assay: [3H]adenosine uptake into PbENT1-expressing yeast; assay type: cell-based
[3] = tested on: 3D7 strain P. falciparum parasites; assay: P. falciparum parasite proliferation, 3D7 strain; assay type: cell-based; settings: Plasmodium falciparum, 3D7, 48 h, read-out: 3D7 parasite proliferation IC50
PvENT1 = PvENT1 (Plasmodium vivax, UniProt A5K8B0); assay: [3H]adenosine uptake into PvENT1-expressing yeast; assay type: cell-based
[4] = tested on: 7G8 strain P. falciparum parasites; assay: P. falciparum parasite proliferation, 7G8 strain; assay type: cell-based; settings: Plasmodium falciparum, 7G8, read-out: 7G8 parasite proliferation IC50
PfENT1 [5] = biological target: T1, PfENT1 (Plasmodium falciparum, UniProt Q8IDM6); assay: Yeast Kill Assay; assay type: cell-based
T1 sequence (Q8IDM6 1-422): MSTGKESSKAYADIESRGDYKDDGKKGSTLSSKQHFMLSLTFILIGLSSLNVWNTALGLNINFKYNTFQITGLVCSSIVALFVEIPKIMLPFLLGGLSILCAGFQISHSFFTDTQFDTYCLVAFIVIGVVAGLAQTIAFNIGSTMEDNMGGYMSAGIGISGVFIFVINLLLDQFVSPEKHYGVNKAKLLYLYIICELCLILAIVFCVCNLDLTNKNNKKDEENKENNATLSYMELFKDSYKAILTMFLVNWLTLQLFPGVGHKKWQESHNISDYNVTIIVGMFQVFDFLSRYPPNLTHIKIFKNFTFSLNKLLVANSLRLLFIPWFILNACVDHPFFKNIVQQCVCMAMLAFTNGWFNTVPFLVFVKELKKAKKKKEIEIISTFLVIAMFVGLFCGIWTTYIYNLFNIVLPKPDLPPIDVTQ

PfENT1 [6] = biological target: T1, PfENT1; assay: Yeast Kill Assay; assay type: cell-based; remark: listed apart in the source
PfENT1 [7] = biological target: T1, PfENT1; assay: [3H]adenosine uptake into PfENT1-expressing yeast; assay type: cell-based
in vitro = assay type: cell-based; settings: human
human serum albumin = human serum albumin (Homo sapiens, UniProt P02768); assay: HSA column binding; assay type: in vitro ADME
PfENT1 [8] = biological target: T1, PfENT1; assay: Yeast HTS Growth Assay
[9] = tested on: Dd2 strain P. falciparum parasites; assay: P. falciparum parasite proliferation, Dd2 strain; assay type: cell-based, Plasmodium falciparum
Property Forecast Index = assay type: physicochemical; settings: chromatographic log D7.4 + aromatic ring count
Kinetic solubility = assay type: physicochemical; settings: phosphate buffered saline, pH 7.4, aqueous buffer, kinetic from dmso stock
hENT1 = biological target: T2, hENT1 (Homo sapiens, UniProt Q99808); assay: [3H]adenosine uptake into human RBC; assay type: cell-based; settings: for hENT1 [3H]adenosine uptake into RBC IC50: mean ± SD, NE = no effect at 100 μM
T2 sequence (Q99808 1-456): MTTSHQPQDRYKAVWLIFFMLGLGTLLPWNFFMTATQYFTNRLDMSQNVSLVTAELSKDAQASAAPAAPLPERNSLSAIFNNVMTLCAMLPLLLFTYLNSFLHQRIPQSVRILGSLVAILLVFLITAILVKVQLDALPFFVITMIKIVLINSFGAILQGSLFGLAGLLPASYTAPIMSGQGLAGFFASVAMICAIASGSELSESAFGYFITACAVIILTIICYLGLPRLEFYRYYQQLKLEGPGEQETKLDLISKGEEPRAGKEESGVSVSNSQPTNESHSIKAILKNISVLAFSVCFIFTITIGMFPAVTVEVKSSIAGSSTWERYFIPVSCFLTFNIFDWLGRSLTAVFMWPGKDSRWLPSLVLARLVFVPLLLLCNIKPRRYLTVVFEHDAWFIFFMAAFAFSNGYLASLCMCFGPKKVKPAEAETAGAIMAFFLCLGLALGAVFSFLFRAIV

[10] = tested on: HB3 strain P. falciparum parasites; assay: P. falciparum parasite proliferation, HB3 strain; assay type: cell-based; settings: Plasmodium falciparum, HB3, read-out: HB3 parasite proliferation IC50
hFNT = biological target: T3, hFNT (Homo sapiens, UniProt Q8NBI5); assay: [3H]hypoxanthine uptake into human RBC; assay type: cell-based; settings: mean ± SD; 15 minutes; NE = no effect at 100 μM
T3 sequence (Q8NBI5 1-491): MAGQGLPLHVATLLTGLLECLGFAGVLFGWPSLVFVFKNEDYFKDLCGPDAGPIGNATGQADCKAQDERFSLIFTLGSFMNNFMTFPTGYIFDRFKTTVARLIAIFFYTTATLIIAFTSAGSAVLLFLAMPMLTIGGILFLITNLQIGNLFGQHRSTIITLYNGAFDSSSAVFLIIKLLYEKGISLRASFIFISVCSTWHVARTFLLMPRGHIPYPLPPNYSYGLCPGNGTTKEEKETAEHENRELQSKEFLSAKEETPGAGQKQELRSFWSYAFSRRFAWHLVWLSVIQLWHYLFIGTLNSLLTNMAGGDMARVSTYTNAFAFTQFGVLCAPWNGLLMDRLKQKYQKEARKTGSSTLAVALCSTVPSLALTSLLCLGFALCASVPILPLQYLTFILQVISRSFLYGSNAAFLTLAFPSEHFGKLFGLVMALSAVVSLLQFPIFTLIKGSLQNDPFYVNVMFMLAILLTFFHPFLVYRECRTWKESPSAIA

[11] = Plasmodium falciparum, DD2, read-out: Dd2 parasite proliferation IC50, mean ± SD

Sequence of PbENT1 (A0A509AYF4 whole entry): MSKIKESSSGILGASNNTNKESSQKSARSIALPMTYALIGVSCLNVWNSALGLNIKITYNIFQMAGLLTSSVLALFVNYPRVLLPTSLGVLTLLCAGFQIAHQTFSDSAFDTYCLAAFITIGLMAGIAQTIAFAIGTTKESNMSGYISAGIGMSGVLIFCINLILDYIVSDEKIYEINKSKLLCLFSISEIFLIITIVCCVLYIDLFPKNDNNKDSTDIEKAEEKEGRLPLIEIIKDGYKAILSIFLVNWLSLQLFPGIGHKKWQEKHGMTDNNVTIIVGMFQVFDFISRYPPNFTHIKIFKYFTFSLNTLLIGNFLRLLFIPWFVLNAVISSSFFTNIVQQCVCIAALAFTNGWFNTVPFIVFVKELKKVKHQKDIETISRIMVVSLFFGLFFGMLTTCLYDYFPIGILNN
Sequence of human serum albumin (P02768 25-609): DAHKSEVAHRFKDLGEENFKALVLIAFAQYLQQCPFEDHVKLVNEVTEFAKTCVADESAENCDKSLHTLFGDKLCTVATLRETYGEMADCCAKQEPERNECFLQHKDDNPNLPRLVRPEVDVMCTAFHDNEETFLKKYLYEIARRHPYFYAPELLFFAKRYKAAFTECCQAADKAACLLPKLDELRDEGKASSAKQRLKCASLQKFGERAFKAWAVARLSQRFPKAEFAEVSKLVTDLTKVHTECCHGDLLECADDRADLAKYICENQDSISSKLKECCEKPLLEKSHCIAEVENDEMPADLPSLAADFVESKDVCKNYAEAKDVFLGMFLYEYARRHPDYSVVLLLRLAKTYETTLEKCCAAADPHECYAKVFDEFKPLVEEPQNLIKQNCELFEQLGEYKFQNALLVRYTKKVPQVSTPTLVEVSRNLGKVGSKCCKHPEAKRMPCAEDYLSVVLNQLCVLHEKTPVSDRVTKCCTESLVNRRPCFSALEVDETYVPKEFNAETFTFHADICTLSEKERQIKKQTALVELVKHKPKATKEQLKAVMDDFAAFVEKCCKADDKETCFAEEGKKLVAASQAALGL
Sequence of PvENT1 (A5K8B0 whole entry): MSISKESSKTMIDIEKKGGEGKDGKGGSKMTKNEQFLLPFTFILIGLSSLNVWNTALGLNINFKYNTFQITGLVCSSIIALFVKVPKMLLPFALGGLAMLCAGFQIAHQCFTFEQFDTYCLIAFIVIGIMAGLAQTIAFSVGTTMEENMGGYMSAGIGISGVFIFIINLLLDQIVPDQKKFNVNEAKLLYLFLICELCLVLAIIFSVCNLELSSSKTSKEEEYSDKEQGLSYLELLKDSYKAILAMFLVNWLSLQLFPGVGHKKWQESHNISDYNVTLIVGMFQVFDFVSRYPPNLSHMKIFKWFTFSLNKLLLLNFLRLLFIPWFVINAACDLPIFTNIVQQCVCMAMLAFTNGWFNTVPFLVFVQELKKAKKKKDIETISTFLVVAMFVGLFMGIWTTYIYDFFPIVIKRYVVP

Compound: O=c1[nH]c(=O)n([C@@H]2O[C@H](CO)[C@@H](O)[C@H]2O)cc1F [5-FUrd, 5-fluorouridine]
- IC50 [1]: 4.8 µM

Compound: COc1ccc(-c2nc(C(=O)Nc3cccc(-c4nnc5n4CCCCC5)c3)cs2)cc1OC [GSK-1, 2-(3,4-Dimethoxyphenyl)-N-[3-(6,7,8,9-tetrahydro-5H-[1,2,4]triazolo[4,3-a]azepin-3-yl)phenyl]-1,3-thiazole-4-carboxamide]
- IC50 [2]: 17 ± 4.8 µM
- IC50 (PbENT1): 0.13 ± 0.05 µM
- IC50 [3]: 0.78 ± 0.2 µM
- IC50 (PvENT1): 0.14 ± 0.07 µM
- IC50 [4]: 0.48 ± 0.2 µM
- IC50 (PfENT1 [5]): 0.63 µM
- IC50 (PfENT1 [6]): 0.54 ± 0.2 µM
- IC50 (PfENT1 [7]): 0.12 ± 0.08 µM
- IC50 at 48 h (in vitro): > 100 µM
- HSA Column binding (human serum albumin): 94%
- EC50 (PfENT1 [8]): 3.16 µM
- IC50 [9, 11]: 0.11 ± 0.009 µM
- PFI (Property Forecast Index): 8.8
- solubility at 1 h (Kinetic solubility): 10.5 µg/mL (≈ 22.1 µM)
- IC50 (hENT1): 0.99 ± 0.81 µM
- IC50 [10]: 0.34 ± 0.1 µM

Compound: CCc1nnc(NC(=O)c2nc(-c3ccc(Cl)cc3)n3c2CCCCC3)s1 [GSK-2, 3-(4-Chlorophenyl)-N-(5-ethyl-1,3,4-thiadiazol-2-yl)-6,7,8,9-tetrahydro-5H-imidazo[1,5-a]azepine-1-carboxamide]
- IC50 [2]: 2.66 µM
- IC50 (PbENT1): 0.05 ± 0.03 µM
- IC50 [3]: 2.25 ± 0.4 µM
- IC50 (PvENT1): 0.04 ± 0.03 µM
- IC50 [4]: 4.52 ± 0.1 µM
- IC50 (PfENT1 [5]): < 0.08 µM
- IC50 (PfENT1 [6]): 0.11 ± 0.04 µM
- IC50 (PfENT1 [7]): 0.03 ± 0.03 µM
- IC50 at 48 h (in vitro): > 100 µM
- HSA Column binding (human serum albumin): 97%
- EC50 (PfENT1 [8]): 0.25 µM
- IC50 [9, 11]: 1.89 ± 0.2 µM
- PFI (Property Forecast Index): 9.6
- solubility at 1 h (Kinetic solubility): 2.5 µg/mL (≈ 6.22 µM)
- IC50 (hENT1): 24.5 ± 24.8 µM
- IC50 [10]: 3.55 ± 0.7 µM
- hFNT [3H]hypoxanthine uptake into RBC IC50 (hFNT): did not inhibit

Compound: O=C(Nc1ccccc1C(=O)NC1CC1)c1cccc(N2CCCC2=O)c1 [GSK-3, N-Cyclopropyl-2-{[3-(2-oxo-1-pyrrolidinyl)benzoyl]amino}benzamide]
- PfENT1-KO parasite proliferation IC50 ([2]; 75 μM hypoxanthine, NE = no effect at 74.2 μM, N=1 for GSK-2 and GSK-5): Low activity/NE^e
- IC50 (PbENT1): 0.07 ± 0.04 µM
- IC50 [3]: 2.38 ± 0.5 µM
- IC50 (PvENT1): 0.04 ± 0.01 µM
- IC50 [4]: 6.08 ± 1.3 µM
- IC50 (PfENT1 [5]): 0.63 µM
- IC50 (PfENT1 [6]): 0.46 ± 0.3 µM
- IC50 (PfENT1 [7]): 0.03 ± 0.01 µM
- IC50 at 48 h (in vitro): > 100 µM
- HSA Column binding (human serum albumin): 84%
- EC50 (PfENT1 [8]): 2.51 µM
- IC50 [9, 11]: 0.59 ± 0.05 µM
- PFI (Property Forecast Index): 6
- solubility at 1 h (Kinetic solubility): 112 µg/mL (≈ 308 µM)
- IC50 (hENT1): 72.4 ± 19.3 µM
- IC50 [10]: 2.21 ± 0.6 µM

Compound: Cc1oc(-c2ccccc2)nc1C(=O)NCCN1CCCCCC1=O [GSK-4, 5-Methyl-N-[2-(2-oxo-1-azepanyl)ethyl]-2-phenyl-1,3-oxazole-4-carboxamide]
- IC50 [2]: 29.4 ± 0.5 µM
- IC50 (PbENT1): 0.01 ± 0.01 µM
- IC50 [3]: 6.2 ± 1.9 µM
- IC50 (PvENT1): 0.02 ± 0.04 µM
- IC50 [4]: 8.44 ± 2.4 µM
- IC50 (PfENT1 [5]): 1.26 µM
- IC50 (PfENT1 [6]): 0.43 ± 0.3 µM
- IC50 (PfENT1 [7]): 0.02 ± 0.01 µM
- IC50 at 48 h (in vitro): > 100 µM
- HSA Column binding (human serum albumin): 92%
- EC50 (PfENT1 [8]): 3.98 µM
- IC50 [9, 11]: 1.9 ± 0.4 µM
- PFI (Property Forecast Index): 6.5
- solubility at 1 h (Kinetic solubility): 156 µg/mL (≈ 457 µM)
- IC50 (hENT1): 51 ± 27.7 µM
- IC50 [10]: 6.16 ± 2.5 µM
- hFNT [3H]hypoxanthine uptake into RBC IC50 (hFNT): did not inhibit

Compound: CC(=O)Nc1nc(-c2c(F)cccc2F)cs1 [GSK-5, N-[4-(2,6-Difluorophenyl)-1,3-thiazol-2-yl]acetamide]
- IC50 [2]: 10.8 µM
- IC50 (PbENT1): 3.09 ± 2.7 µM
- IC50 [3]: 8.72 ± 1.6 µM
- IC50 (PvENT1): 2.71 ± 0.25 µM
- IC50 [4]: 16.1 ± 5.5 µM
- IC50 (PfENT1 [5]): 6.31 µM
- IC50 (PfENT1 [6]): 4 ± 1.3 µM
- IC50 (PfENT1 [7]): 2.59 ± 2.36 µM
- IC50 at 48 h (in vitro): > 100 µM
- HSA Column binding (human serum albumin): 90%
- EC50 (PfENT1 [8]): 63.1 µM
- IC50 [9, 11]: 10.6 ± 2.1 µM
- PFI (Property Forecast Index): 5.7
- solubility at 1 h (Kinetic solubility): 16 µg/mL (≈ 62.9 µM)
- hENT1 [3H]adenosine uptake into RBC IC50 (hENT1): did not inhibit; also recorded: Low activity/NE^d
- IC50 [10]: 9.09 ± 4.5 µM

Compound: CCn1cnnc1C1CCN(C(=O)c2cn3ccc(C)cc3n2)CC1 [GSK-6, [4-(4-Ethyl-4H-1,2,4-triazol-3-yl)-1-piperidinyl](7-methylimidazo[1,2-a]pyridin-2-yl)methanone]
- IC50 [2]: > 100 µM
- PbENT1 [3H]Ado uptake IC50 (PbENT1; mean ± SD, yeast expressing P. berghei ENT1, NE = no effect at 100 μM): did not inhibit
- IC50 [3]: 10.3 ± 4.7 µM
- PvENT1 [3H]Ado uptake IC50 (PvENT1; mean ± SD, yeast expressing P. vivax ENT1, NE = no effect at 100 μM): did not inhibit
- IC50 [4]: 19 ± 3.5 µM
- IC50 (PfENT1 [5]): 1.26 µM
- IC50 (PfENT1 [6]): 1.2 ± 1.1 µM
- IC50 (PfENT1 [7]): 3.98 ± 1.35 µM
- IC50 at 48 h (in vitro): > 100 µM
- HSA Column binding (human serum albumin): 48%
- EC50 (PfENT1 [8]): 10 µM
- IC50 [9, 11]: 1.89 µM
- IC50 ([9]; read-out: Dd2 parasite proliferation IC50, mean ± SD): 3.3 ± 1.7 µM
- PFI (Property Forecast Index): 4.2
- solubility at 1 h (Kinetic solubility): > 133 µg/mL
- hENT1 [3H]adenosine uptake into RBC IC50 (hENT1): did not inhibit
- IC50 [10]: 19.7 ± 4.1 µM
- hFNT [3H]hypoxanthine uptake into RBC IC50 (hFNT): did not inhibit
